For one data set, the system named is Candida albicans No. 7. The data set is described as follows: Antifungal activity, microbroth dilution in YNBD medium, Candida albicans No. 7. The format is cell-based. As to conditions: 1×10^4 cfu/100 μl/well, 37° C., 22 hours, 0.5% glucose-containing YNBD, microscopical observation. How it is done: (§1) The antifungal activity of WF16616 substnace was measured in a 0.5% glucose-containing yeast nitrogen base (YNBD) medium by a microbroth dilution analysis method using a 96-well microtiter plate. This substance was dissolved in methanol, and was diluted to twice in sequence in the microtiter plate using the YNBD medium. The test microorganism was inoculated at a concentration of 1×10^4 cfu/100 μl/well. Candida albicans and Aspergillus fumigatus were incubated in the above-mentioned plate at 37° C. for 22 hours, and Cryptococcus neoformans at 30° C. for 48 hours, respectively. Then, MIC was measured through microscopical observation.
For orientation: In broth dilution the organism is exposed to a series of concentrations in liquid medium.

In another data set the test system is Candida albicans FP633. The data set is described as follows: Antifungal activity, microbroth dilution in YNBD medium, Candida albicans FP633. As to conditions: 1×10^4 cfu/100 μl/well, 37° C., 22 hours, 0.5% glucose-containing YNBD, microscopical observation. The format is cell-based. How it is done: as §1
The test system of data set [1] is Aspergillus fumigatus FD050. Kind of data set: Antifungal activity, microbroth dilution in YNBD medium, Aspergillus fumigatus FD050. In kind it is cell-based. As to conditions: 1×10^4 cfu/100 μl/well, 37° C., 22 hours, 0.5% glucose-containing YNBD, microscopical observation. How it is done:
as §1

In data set [2] the test system is Cryptococcus neoformans YC203. The data set is described as follows: Antifungal activity, microbroth dilution in YNBD medium, Cryptococcus neoformans YC203. The format is cell-based. As to conditions: 1×10^4 cfu/100 μl/well, 30° C., 48 hours, 0.5% glucose-containing YNBD, microscopical observation. How it is done:
as §1

The next data set relates to ICR female mice. Kind of data set: Toxicity test, intraperitoneal injection in mice. The format is in vivo. The conditions noted are these: 5 mg/kg intraperitoneally once a day for three days. How it is done: WF16616 substance was intraperitoneally injected into each of five 5-week-old ICR female mice at a dose of 5 mg/kg once a day for three days.

Values after ≈ are worked out from the molar mass of the structure shown.

The results in this text go back to patent US5854276A, “Substance WF16616, process for production thereof, and use thereof” (Fujisawa Pharmaceutical Co., Ltd., priority 1995, dated 1998).

The term MIC denotes the smallest concentration in the dilution series that meets the test's criterion for growth inhibition. Take `CCC(C)CC(C)CCCCCCCCC(=O)NC1CC(O)C(O)NC(=O)C2C(O)C(C)CN2C(=O)C(C(O)CC(N)=O)NC(=O)C(C(O)C(O)c2ccc(O)c(OS(=O)(=O)O)c2)NC(=O)C2CC(O)CN2C(=O)C(C(C)O)NC1=O` (stereo not drawn) [WF16616 substance]: the MIC against Candida albicans No. 7 is 0.78 µg/mL (≈ 0.664 µM); against Candida albicans FP633 it was 0.1 µg/mL (≈ 0.0851 µM); in data set [1], 0.16 µg/mL (≈ 0.136 µM); in data set [2], over 50 µg/mL. Further, the dead mice entry in the data set with ICR female mice (five 5-week-old ICR female mice) is given as “none of the mice were dead”. The “increase in the weight of mice” value in the data set with ICR female mice (versus unadministered mice) is recorded as “quite the same as that in the weight of unadministered mice”.
